A short description of one data set: in vivo. The note with it: female, SD, rat, po, 250 mg/kg.
Data set [1] in a line: Dissolution of curcumin powder and dispersion in fasted state simulated gastric fluid. As to conditions: fasted state simulated gastric fluid pH 1.6, 37° C., 100 rpm, 25 mg equivalent. The class given is physicochemical. As to the method:
• i. 2 gm of curcumin and 2 gm of stearic acid were dissolved in 200 ml of acetone. • ii. The solution was spray dried using following parameters (Table 1). • iii. DSC and MDSC indicated the crystalline nature of curcumin in the dispersion. The crystallite size measured from powder X-ray diffraction peak broadening by Scherrer equation was 398.6 nm. • iv. Fasted state simulated gastric fluid contained sodium taurocholate (80 μM), lecithin (20 μM), pepsin (0.1 mg/ml), sodium chloride (34.2 mM), sodium lauryl sulphate (0.05% w/v) and hydrochloric acid (q.s. pH 1.6). Samples equivalent to 25 mg of CRM were added into 900 ml dissolution medium and incubated at 37±0.5° C. at 100 rpm.

A short description of data set [2]: Dissolution of powder and dispersion in 900 ml of 100 mM pH 6.8 phosphate buffer at 100 rpm. The class given is physicochemical. As to conditions: 60 mg equivalent. As to the method: • i. 2 gm of hesperetin was dissolved in 150 ml of methanol • ii. 2 gm of mannitol was dissolved in 50 ml of distilled water. • iii. Aqueous mannitol solution was added to methanolic solution of hesperetin. The solution was spray dried using following parameters (Table 10). • iv. DSC and MDSC indicated the crystalline nature of hesperetin in the dispersion. The crystallite size measured from powder X-ray diffraction peak broadening (FIG. 14) by Scherrer equation was 141.06 nm. • v. The dissolution profiles of hesperetin powder and dispersion in 900 ml of 100 mM pH 6.8 phosphate buffer at 100 rpm are presented in Table 11. 60 mg equivalent of hesperetin as powder and dispersion were taken for dissolution studies. • i. 2 gm of Naringenin was dissolved in 150 ml of methanol • ii. 2 gm of mannitol was dissolved in 50 ml of distilled water. • iii. Aqueous mannitol solution was added to methanolic solution of naringenin. The solution was spray dried using following parameters (Table 12). • iv. DSC and MDSC indicated the crystalline nature of naringenin in the dispersion. The crystallite size measured from powder X-ray diffraction peak broadening (FIG. 15) by Scherrer equation was 210.63 nm. • v. The dissolution profiles of naringenin powder and dispersion in 900 ml of 100 mM pH 6.8 phosphate buffer at 100 rpm are presented in Table 13. 60 mg equivalent of naringenin as powder and dispersion were taken for dissolution studies.

The values that follow come from patent US9801855B2, “Nanocrystalline solid dispersion compositions and process of preparation thereof” (NATIONAL INSTITUTE OF PHARMACEUTICAL EDUCATION AND RESEARCH …, priority 2012, dated 2017).

Turning to `COc1cc(/C=C/C(=O)CC(=O)/C=C/c2ccc(O)c(OC)c2)ccc1O` [Control, curcumin], in “in vivo”, the AUC(0-inf) came out at 76.2 ng·h/mL, the peak level (Cmax) was 58.1 ng/mL, the time of peak concentration (Tmax) stood at 0.6 ± 0.1 h and the half-life was 1.4 ± 0.3 h.
As to `COc1cc(/C=C/C(=O)CC(=O)/C=C/c2ccc(O)c(OC)c2)ccc1O` [Curcumin powder, curcumin], the “% Release” value in data set [1] (5 min) was 10.8%; in data set [1] (10 min), 15.0%; in data set [1] (15 min), 15.4%; in data set [1] (20 min), 15.1%; in data set [1] (30 min), 15.1%; in data set [1] (40 min), 15.2%. Besides, the “% Release” value in data set [1] (60 min) is 15.0%; in data set [1] (80 min), 15.2%; in data set [1] (100 min), 15.6%; in data set [1] (120 min), 15.3%.
As to `COc1ccc([C@@H]2CC(=O)c3c(O)cc(O)cc3O2)cc1O` [Hesperetin powder, hesperetin], the “% Release” value in data set [2] (0 min) turned out to be 0.00%; in data set [2] (3 min) it was 1.25%; in data set [2] (5 min), 3.06%; in data set [2] (10 min), 2.15%; in data set [2] (15 min) it was 1.06%; in data set [2] (30 min), 1.48%. The “% Release” value in data set [2] (60 min) was found to be 3.74%; in data set [2] (120 min) it was 7.47%.
With `O=C1C[C@@H](c2ccc(O)cc2)Oc2cc(O)cc(O)c21` [Naringenin powder, naringenin], the “% Release” value in data set [2] (0 min) is 1.60%; in data set [2] (3 min) it was 5.84%; in data set [2] (5 min), 9.54%; in data set [2] (10 min), 11.52%; in data set [2] (15 min) it was 17.32%; in data set [2] (30 min), 23.34%. Besides, the “% Release” value in data set [2] (60 min) is on record as 26.25%; in data set [2] (120 min) it was 25.14%.
